Experimental data as given in PubChem BioAssay AID248 (DTP/NCI, 2004).
Values joined by “and” are separate entries in the source; they are usually repeats but may differ in a detail not shown here. Equal entries are not always repeated. Inconclusive results and toxic doses are left out. Rule as the data show it: active = T/C of 150% or more; inactive = T/C below 125%.

System: L1210 leukemia ip in BDF1 mice, survival T/C
Assay: NCI In Vivo Anticancer Drug Screen. Data for tumor model L1210 Leukemia (intraperitoneal) in B6D2F1 (BDF1) mice
Conditions: endpoint: mean survival time, higher = longer survival
Procedure, shortened: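 Value reflects the ratio of survival in compound-treated mice to survival in vehicle-treated controls, with both groups carrying the same transplanted tumor.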

[1] = dose: 12.5 mg/kg/injection, schedule: Q01DX009 (ip), vehicle: saline with Tween-80
[2] = dose: 50.0 mg/kg/injection, schedule: Q01DX001 (ip), vehicle: saline
[3] = dose: 100.0 mg/kg/injection, schedule: Q01DX001 (ip), vehicle: saline
[4] = dose: 200.0 mg/kg/injection, schedule: Q01DX001 (ip), vehicle: saline
[5] = dose: 400.0 mg/kg/injection, schedule: Q01DX001 (ip), vehicle: saline
[6] = dose: 100.0 mg/kg/injection, schedule: Q01DX001 (ip), vehicle: carboxymethylcellulose (CMC)
[7] = dose: 200.0 mg/kg/injection, schedule: Q01DX001 (ip), vehicle: carboxymethylcellulose (CMC)
[8] = dose: 400.0 mg/kg/injection, schedule: Q01DX001 (ip), vehicle: carboxymethylcellulose (CMC)
[9] = dose: 100.0 mg/kg/injection, schedule: Q04DX003 (ip), vehicle: Klucel (hydroxypropylcellulose) (HPC)
[10] = dose: 200.0 mg/kg/injection, schedule: Q04DX003 (ip), vehicle: Klucel (hydroxypropylcellulose) (HPC)
[11] = dose: 400.0 mg/kg/injection, schedule: Q04DX003 (ip), vehicle: Klucel (hydroxypropylcellulose) (HPC)
[12] = dose: 100.0 mg/kg/injection, schedule: Q01DX009 (ip), vehicle: Klucel (hydroxypropylcellulose) (HPC)
[13] = dose: 200.0 mg/kg/injection, schedule: Q01DX009 (ip), vehicle: Klucel (hydroxypropylcellulose) (HPC)
[14] = dose: 75.0 mg/kg/injection, schedule: Q01DX001 (ip), vehicle: saline

Measured: T/C

CCOC(OCC)C(=O)C(C#N)c1ccc(Cl)c(Cl)c1 (stereo not given)
inactive: dose: 5.0 mg/kg/injection, schedule: Q01DX001 (ip), vehicle: saline 109 % of control | dose: 10.0 mg/kg/injection, schedule: Q01DX001 (ip), vehicle: saline 100 % of control | dose: 20.0 mg/kg/injection, schedule: Q01DX001 (ip), vehicle: saline 105 % of control | dose: 40.0 mg/kg/injection, schedule: Q01DX001 (ip), vehicle: saline 97 % of control | dose: 80.0 mg/kg/injection, schedule: Q01DX001 (ip), vehicle: saline 97 % of control

CCOC(=O)c1ccc(N(CC(N)O)S(=O)(=O)c2ccc(C)cc2)cc1 (stereo not given)
inactive: [1] 96 % of control | dose: 25.0 mg/kg/injection, schedule: Q01DX009 (ip), vehicle: saline with Tween-80 98 % of control | dose: 50.0 mg/kg/injection, schedule: Q01DX009 (ip), vehicle: saline with Tween-80 98 % of control

Cn1ncc2[nH]c(=O)n(O)c(=O)c21
inactive: [2] 93 % of control | [3] 96 % of control | [4] 100 % of control | [5] 100 % of control

O=C(Nc1ccc([N+](=O)[O-])cc1)N(c1ccccn1)c1ccccn1
inactive: [6] 89 % of control | [7] 91 % of control | [8] 95 % of control

Cc1cc(C)c2c(c1)CC2=O
inactive: dose: 50.0 mg/kg/injection, schedule: Q04DX002 (ip), vehicle: Klucel (hydroxypropylcellulose) (HPC) 96 % of control | dose: 100.0 mg/kg/injection, schedule: Q04DX002 (ip), vehicle: Klucel (hydroxypropylcellulose) (HPC) 112 % of control | dose: 200.0 mg/kg/injection, schedule: Q04DX002 (ip), vehicle: Klucel (hydroxypropylcellulose) (HPC) 86 % of control

CC1(C)Oc2c(ccc(O)c2CN2CCCC2)C2=C1CCCC2
inactive: [3] 95 % of control | [4] 95 % of control | [5] 95 % of control

Clc1ccnc2[nH]ncc12
inactive: dose: 60.0 mg/kg/injection, schedule: Q01DX001 (ip), vehicle: other 97 % of control | dose: 120.0 mg/kg/injection, schedule: Q01DX001 (ip), vehicle: other 105 % of control

CN(C)c1ccc(C=Nc2cc([N+](=O)[O-])ccc2O)cc1
inactive: [3] 96 % of control | [4] 92 % of control | [5] 91 % of control

CNS(=O)(=O)c1ccccc1C(=O)c1ccccc1
inactive: [3] 100 % of control | [4] 97 % of control | [5] 103 % of control

CCOC(=O)NC(C(N)=O)C(N)=O
inactive: [9] 103 % of control | [10] 108 % of control | [11] 106 % of control

Nc1c(C(F)(F)F)[nH]c(Cl)nc1=S
inactive: dose: 29.0 mg/kg/injection, schedule: Q01DX Z (ip), vehicle: methylcellulose (MC) 105 % of control | dose: 66.0 mg/kg/injection, schedule: Q01DX Z (ip), vehicle: methylcellulose (MC) 94 % of control

Cc1ccc(Nc2n[nH]c(=S)s2)cc1C
inactive: dose: 100.0 mg/kg/injection, schedule: Q01DX009 (ip), vehicle: saline with Tween-80 93 % of control | dose: 200.0 mg/kg/injection, schedule: Q01DX009 (ip), vehicle: saline with Tween-80 92 % of control | dose: 400.0 mg/kg/injection, schedule: Q01DX009 (ip), vehicle: saline with Tween-80 106 % of control

C=C(Br)COCC
inactive: dose: 25.0 mg/kg/injection, schedule: Q01DX009 (ip), vehicle: acetone 97 % of control

CCCCCCCCC(=O)N1CC(C)OC(C)C1 (stereo not given)
inactive: [12] 120 % of control | dose: 100.0 mg/kg/injection, schedule: Q04DX003 (ip), vehicle: other 118 % of control | [13] 87 % of control | dose: 200.0 mg/kg/injection, schedule: Q04DX003 (ip), vehicle: other 109 % of control | dose: 400.0 mg/kg/injection, schedule: Q01DX009 (ip), vehicle: Klucel (hydroxypropylcellulose) (HPC) 94 % of control | dose: 400.0 mg/kg/injection, schedule: Q04DX003 (ip), vehicle: other 104 % of control

CC(=O)OC1C=CC(=O)OC1C1OC1C (stereo not given)
inactive: dose: 4.0 mg/kg/injection, schedule: Q01DX Z (ip), vehicle: saline 100 % of control | dose: 6.0 mg/kg/injection, schedule: Q01DX Z (ip), vehicle: saline 111 % of control | dose: 9.0 mg/kg/injection, schedule: Q01DX Z (ip), vehicle: saline 110 % of control | dose: 13.0 mg/kg/injection, schedule: Q01DX Z (ip), vehicle: saline 100 % of control and 108 % of control | dose: 19.0 mg/kg/injection, schedule: Q01DX Z (ip), vehicle: saline 103 % of control | dose: 29.0 mg/kg/injection, schedule: Q01DX Z (ip), vehicle: saline 103 % of control

O=C(Nc1ccccc1C(=O)c1ccccn1)c1ccccc1
inactive: [9] 104 % of control | [10] 98 % of control | [11] 101 % of control

CN(Cc1ccccc1O)C1CCCCC1
inactive: [14] 95 % of control

COC(=O)c1ccc(NCC(C)(C)N)cc1
inactive: dose: 12.0 mg/kg/injection, schedule: Q01DX001 (ip), vehicle: saline 94 % of control | dose: 12.0 mg/kg/injection, schedule: Q01DX009 (ip), vehicle: saline 98 % of control | dose: 12.0 mg/kg/injection, schedule: Q04DX003 (ip), vehicle: saline 97 % of control | dose: 25.0 mg/kg/injection, schedule: Q01DX001 (ip), vehicle: saline 96 % of control | dose: 25.0 mg/kg/injection, schedule: Q01DX009 (ip), vehicle: saline 105 % of control | dose: 25.0 mg/kg/injection, schedule: Q04DX003 (ip), vehicle: saline 104 % of control | [2] 101 % of control | dose: 50.0 mg/kg/injection, schedule: Q01DX009 (ip), vehicle: saline 93 % of control | dose: 50.0 mg/kg/injection, schedule: Q04DX003 (ip), vehicle: saline 97 % of control

CN(C)CCCN=C=NC1CCCCC1
inactive: [9] 98 % of control | [10] 95 % of control

COc1cccc(Nc2ccc(C(=O)O)cc2[N+](=O)[O-])c1
inactive: dose: 100.0 mg/kg/injection, schedule: Q04DX003 (ip), vehicle: water 98 % of control | dose: 200.0 mg/kg/injection, schedule: Q04DX003 (ip), vehicle: water 103 % of control | dose: 400.0 mg/kg/injection, schedule: Q04DX003 (ip), vehicle: water 98 % of control

Cc1[nH]nc2c(=O)[nH]c(=O)[nH]c12
inactive: [14] 100 % of control | dose: 150.0 mg/kg/injection, schedule: Q01DX001 (ip), vehicle: saline 103 % of control | dose: 300.0 mg/kg/injection, schedule: Q01DX001 (ip), vehicle: saline 107 % of control

Cc1ccc(S(=O)(=O)NNC(=O)c2cc(C)c(C)cc2NCC(O)C(O)C(O)CO)cc1 (stereo not given)
inactive: [6] 93 % of control | [7] 98 % of control | [8] 89 % of control

CC(=O)Nc1ccc(SSSc2ccc(NC(C)=O)cc2)cc1
inactive: dose: 1.56 mg/kg/injection, schedule: Q01DX009 (ip), vehicle: water 100 % of control | dose: 3.12 mg/kg/injection, schedule: Q01DX009 (ip), vehicle: water 92 % of control | dose: 6.25 mg/kg/injection, schedule: Q01DX009 (ip), vehicle: water 96 % of control | dose: 12.5 mg/kg/injection, schedule: Q01DX009 (ip), vehicle: water 91 % of control | dose: 25.0 mg/kg/injection, schedule: Q01DX009 (ip), vehicle: water 94 % of control and 88 % of control | dose: 200.0 mg/kg/injection, schedule: Q01DX009 (ip), vehicle: water 92 % of control

C/C(=C\c1ccccc1Cl)[N+](=O)[O-]
inactive: [12] 95 % of control | [9] 100 % of control | [13] 93 % of control | [10] 96 % of control | [11] 105 % of control

CC1=Nc2c([nH]cnc2=S)NN1
inactive: dose: 6.25 mg/kg/injection, schedule: Q01DX009 (ip), vehicle: saline with Tween-80 94 % of control | dose: 6.25 mg/kg/injection, schedule: Q04DX003 (ip), vehicle: saline with Tween-80 102 % of control | dose: 12.5 mg/kg/injection, schedule: Q01DX001 (ip), vehicle: saline with Tween-80 87 % of control | [1] 91 % of control | dose: 12.5 mg/kg/injection, schedule: Q04DX003 (ip), vehicle: saline with Tween-80 98 % of control | dose: 25.0 mg/kg/injection, schedule: Q01DX001 (ip), vehicle: saline with Tween-80 102 % of control | dose: 25.0 mg/kg/injection, schedule: Q04DX003 (ip), vehicle: saline with Tween-80 100 % of control

CCCCOc1c(OC)cc(OC)cc1C(=O)O
inactive: [6] 102 % of control | [7] 91 % of control | [8] 86 % of control
